# Data: US20260069599A1, “INHIBITORS OF BROMODOMAIN-CONTAINING PROTEIN 4 AND PHOSPHOINOSITIDE 3-KINASE” (Board of Regents of the University of Nebraska, priority 2022, published 2026)
# Experiments:
# [1] = target: T1, BRD4-BD1 (Homo sapiens, UniProt O60885); conditions: relative to SF2523; cited from earlier work
# T1 construct: tested against BRD4-BD1 and BRD4-BD2 using a peptide-displacement assay
# [2] = target: T2, BRD4-BD2 (Homo sapiens, UniProt O60885); set-up: tested against BRD4-BD1 and BRD4-BD2 using a peptide-displacement assay; conditions: relative to SF2523; cited from earlier work
# [3] = target: T2, BRD4-BD2; test: Protein Thermal Shift (PTS) assay on BRD4-BD2; format: binding; set-up: polyhistidine (N, cleaved yes); made in house; host or cells: E. coli (T7 express); conditions: 100 μM ligand, 20 μM BD protein; thermal destabilization
# Method: The genes encoding human BRD2-BD1, BRD2-BD2, and BRD4-BD2 were codon-optimized for expression in E. coli. […] The sequence-confirmed plasmids were used to transform T7 express E coli. Large-scale cell cultures were grown in LB media containing […] carbenicillin and incubated with shaking at 37° C. until the OD600 nm reached 0.6. Then cultures were cooled to 16° C., and 1 mM isopropyl β-D-1-thiogalactopyranoside was added to induce the protein expression. After 20 hours of incubation, cells were harvested. The resulting cell pellet was resuspended in a lysis buffer containing 50 mM Tris pH 7.5, 200 mM NaCl, 0.5 mM imidazole, and 0.3 mM tris(2-carboxyethyl) phosphine (TECP). After the addition of DNase I and lysozyme, the cell suspension was incubated on ice for 30 minutes and lysed by sonication. The lysate was clarified by centrifugation at 12,000 rpm for 45 minutes. The resulting supernatant was applied to a 5 mL metal affinity cobalt column pre-equilibrated with lysis buffer. Then, 25 column volumes of lysis buffer were passed through the column to eliminate unbound E coli proteins. Recombinant protein was eluted isocratically with the elution buffer containing 50 mM Tris pH 7.5, 200 mM NaCl, 150 mM imidazole, and 0.3 mM TECP. The rhinovirus 3C protease was added to the eluted recombinant protein to cleave the N-terminal Histidine tag and the sample dialyzed against a buffer containing 50 mM Tris pH 7.5, 100 mM NaCl and 0.3 mM TECP. After 12 hours, the protein solution was passed through a 5 ml cobalt column, which was pre-equilibrated with dialysis buffer, and the recombinant protein lacking the His-tag was collected from the flowthrough.
# Each reaction used 20 μM concentration of recombinant BD protein in a 50 mM Tris pH 7.5 buffer containing 100 mM NaCl, 0.3 mM tris(2-carboxyethyl) phosphine HCl, and 1% dimethyl sulfoxide. Protein Thermal Shift Dye (ThermoFisher) was also added at 1× concentration. Under these conditions, 3 protein melting curves with each respective BD and 100 μM final concentration of ligand were performed from 25 to 95° C. with a ramp rate of 0.5° C./minute. Evaluation of the derivative of the fluorescence signal employed the Applied Bioscience Protein Thermal Shift Software version 1.3 to determine the average melting temperature (Tm) for each sample and the standard deviation(s) of those Tm values.
SMILES,better binding affinity than SF2523 for BRD4-BD1 [1] [fold],better binding affinity than SF2523 for BRD4-BD2 [2] [fold],BRD4-BD2 Tm decrease [3] [°C]
O=C(NCc1cccnc1)c1cc(-c2csc3c(=O)cc(N4CCOCC4)oc23)cc2c1OCCO2 [SRX3212],65,48,
"O=c1cc(N2CCOCC2)oc2c(Br)cccc12 [MDP4, 8-bromo-2-morpholino-4H-chromen-4-one]",,,0.6
"O=c1c(N2CCOCC2)nc(Br)c2n1CCc1ccccc1-2 [MDP3, 1-bromo-3-morpholino-6,7-dihydro-4H-pyrazino [2,1-a]isoquinolin-4-one]",,,1.3
